For data set [1], the target named is T1, PAR2 (HT-29 cells, SLIGKV activation) (Homo sapiens, UniProt P55085).
T1 construct: host or cells: HT-29 cells
T1 sequence (P55085 26-397): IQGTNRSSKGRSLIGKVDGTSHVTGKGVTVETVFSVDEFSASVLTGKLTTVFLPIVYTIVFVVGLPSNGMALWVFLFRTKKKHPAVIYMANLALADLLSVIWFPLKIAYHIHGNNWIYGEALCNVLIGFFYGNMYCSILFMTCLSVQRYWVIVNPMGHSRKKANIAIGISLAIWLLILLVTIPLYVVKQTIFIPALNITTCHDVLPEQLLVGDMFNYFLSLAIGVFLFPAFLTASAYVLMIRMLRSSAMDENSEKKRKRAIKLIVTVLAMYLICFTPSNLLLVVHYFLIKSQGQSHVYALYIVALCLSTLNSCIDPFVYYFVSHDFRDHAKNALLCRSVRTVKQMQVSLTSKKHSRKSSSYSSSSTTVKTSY
In words: Ca FLIPR TETRA assay, ANTAGONIST mode, stimulation with 8 μM SLIGKV. The settings on record: HT-29 cells, antagonist mode, stimulation with 8 μM SLIGKV. It is filed as cell-based. The method, boiled down:
(§1)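 Inhibition of activator-evoked Ca2+ flux was recorded on FLIPR Tetra in HT-29 cells after 30 min compound exposure at r.t. A prior read checked whether compounds alone triggered Ca2+ release.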

Data set [2] deals with T2, PAR2 (HT-29 cells, trypsin activation) (Homo sapiens, UniProt P55085).
T2 construct: host or cells: HT-29 cells
T2 sequence (P55085 26-397): T1 sequence (P55085 26-397)
As to the kind of experiment: Ca FLIPR TETRA assay, ANTAGONIST mode, stimulation with 3.1 U/mL trypsin. In kind it is cell-based. The conditions noted are these: HT-29 cells, antagonist mode, stimulation with 3.1 U/mL trypsin. In a few lines: as §1

Data set [3] relates to Thrombin-stimulated Ca2+ response in HT-29 cells. As to the kind of experiment: Ca FLIPR TETRA assay, ANTAGONIST mode, stimulation with 1 U/mL Thrombin. It is filed as cell-based, human. The settings on record: Homo sapiens; HT-29 cells, antagonist mode, stimulation with 1 U/mL Thrombin. The method, boiled down:
as §1

Data set [4] deals with UTP-stimulated Ca2+ response in HT-29 cells. As to the kind of experiment: Ca FLIPR TETRA assay, ANTAGONIST mode, stimulation with 0.6 μM UTP. In kind it is cell-based, human. The conditions noted are these: Homo sapiens; HT-29 cells, antagonist mode, stimulation with 0.6 μM UTP. In a few lines: as §1
A short description of data set [5]: In vivo rat pharmacokinetics (intravenous and oral). The conditions noted are these: plasma; for clearance: intravenous 0.5 to 1 mg/kg, read-out: Clp; for Vd: intravenous, read-out: Vss; for bioavailability: oral by gavage; for half-life: read-out: T ½ (converted). How it is done: Example 61: Protocol for Testing PAR2 Compounds In Vivo Rat Pharmacokinetics Experiments
Compounds delivered by intravenous route were formulated using a solution formulation consisting of 5% N-methylpyrrolidone 10% Vitamin E-TPGS and 85% water (v/v/) or a solution formulation consisting of 25% N-methylpyrrolidone 35% polyethylene glycol 400 and 40% water (v/v/). Intravenous formulations were administered by a bolus injection (over approximately 10 seconds) using a hypodermic needle attaches to a syringe (tail vein). The dose volume was varied from 1 to 2 mL/kg and the dose was varied from 0.5 to 1 mg/kg. Compounds delivered orally were formulated as a solution formulation consisting of 5% N-methylpyrrolidone 10% Vitamin E-TPGS and 85% water (v/v/) or as fine suspension using a cellulose derivative suspending agent with or without the addition of a wetting agent/surfactant. Milling of large particles was performed as needed to reduce particle size using focused electroacoustic milling, homogenization or low energy media milling. A spray-dried solid dispersion was prepared for key compounds using 1:1 combination with cellulose derivatives. Test compounds were administered orally by gavage using a gavage plastic needle attached to a syringe. The dose volume was varied from 5 to 10 mL/kg and the dose was varied from 1 to 600 mg/kg.
Rats were bled by venipuncture (jugular vein) and the samples were collected into tubes containing K3EDTA. The tubes were placed on wet ice until processed. The samples were centrifuged for approximately 10 minutes (at approximately 4° C.) within approximately 30 minutes of collection to prepare plasma or diluted in citrate buffer (1:3) and stored frozen (approximately −30° C.). Thawed plasma or whole blood samples were extracted by protein precipitation using an organic solvent followed by centrifugation. The supernatants were separated by high-performance liquid chromatography coupled to mass spectrometry detection. A calibration curve was prepared using reference standard compounds spiked into either blank plasma or whole blood matrices and extracted similarly to unknown samples. Pharmacokinetic parameters were calculated using non-compartmental analysis.

Data set [6] deals with carrageenan-induced paw edema. In words: Rat carrageenan-induced paw edema model. In kind it is in vivo, Sprague Dawley rats. The conditions noted are these: for % inhibition of an established carrageenan induced rat paw edema: given 2 hours post carrageenan challenge; for % inhibition of carrageenan induced paw edema: given before carrageenan challenge. How it is done:
(§2) Male Sprague Dawley rats and BALB/c mice were housed in groups in a temperature controlled room and were acclimatized in the animal facility for at least three days prior to use. Experiments were performed during the light phase of the cycle. Animals have food and water ad libitum.
Example 63: Rat Carrageenan-Induced Paw Edema Model
Peripheral inflammation was induced by intra-plantar administration of 100 ul of a 1% w/volume (in saline) carrageenan solution under isoflurane anesthesia. The degree of swelling was assessed using the plethysmometer at 2-3-4-5-6 h after carrageenan injection. Test compound or vehicle (0.5% MC/0.1% SDS) was systemically administered at the indicated doses in a volume of 5 mL/kg either I-3 hour before carrageenan challenge (Table 9) or 2 hours post carrageenan challenge (Table 10).
(§3) Data are expressed as the mean % effect. Statistical significance was assessed using t-test for comparison between naive and inflamed rats, and one-way ANOVA followed by post-hoc comparison test for overall drug effectiveness. A difference between groups is considered significant with a p value of <0.05. *, p<0.05; **, p<0.01; ***, p<0.001 vs. vehicle.

Data set [7] relates to tryptase-induced mechanical hypersensitivity. In words: Rat tryptase-induced mechanical hypersensitivity model. It is filed as in vivo, Sprague Dawley rats. The settings on record: for % inhibition of tryptase-induced nociception: given 3-18 h before the tryptase challenge; for % inhibition of an established tryptase-induced nociception: given 30 minutes post tryptase challenge. The method, then: as §2
Example 64: Rat Tryptase-Induced Mechanical Hypersensitivity Model
Peripheral sensitization was induced by intra-dermal administration of 500 ng of tryptase in a volume of 10 ul PBS under isoflurane anesthesia. Rats were then placed on a wire mesh grid in separate compartments and allowed to acclimatize before testing. Mechanical hypersensitivity was assessed 30 min after tryptase injection using calibrated von Frey filaments applied perpendicular to the plantar surface of the affected paw using the up-and-down method. Test compounds or vehicle (0.5% MC/0.1% SDS) were systemically administered at doses indicated in a volume of 5 mL/kg 3-18 h before the tryptase challenge (Table 11) or 30 minutes post tryptase challenge (Table 12).
as §3

Data set [8] relates to TNBS-induced colitis. As to the kind of experiment: Mouse TNBS-induced colitis model. In kind it is in vivo, BALB/c mice. The settings on record: mice. The method, then: as §2
Example 65: Mouse TNBS-Induced Colitis Model
Colitis was induced by intra-colonic administration of 1.5 mg of TNBS in 75 μl of 40% v/volume ethanol solution under isoflurane anesthesia at a depth of 4 cm from the anal verge. Mice were kept with their heads down for 30 additional seconds post administration to ensure distribution of TNBS. Disease activity scores were assessed for a period of 5 days starting prior to TNBS injection (baseline reading). […] Test compounds or vehicle (0.5% MC/0.1% SDS) were systemically administered at the indicated doses in a volume of 10 mL/kg each day for 5 days and starting 1 day before TNBS.
as §3

The text below walks through data of patent US20190119282A1, “IMIDAZOPYRIDAZINES USEFUL AS INHIBITORS OF THE PAR-2 SIGNALING PATHWAY” (Vertex Pharmaceuticals Incorporated, priority 2013, published 2019).

Molecules are shown by their SMILES. Marks after values point to notes of the source that are not given here.

As a reminder, the IC50 is the concentration that gives 50% inhibition. In general, bioavailability refers to dose-corrected exposure relative to a reference, in per cent. On to `CC(C)(C)c1cc(-c2ccc(F)cc2)nn2cc(C(=O)N3CCNC(=O)C3(C)C)nc12` [Compound I-191, 4-(8-(tert-butyl)-6-(4-fluorophenyl)imidazo[1,2-b]pyridazine-2-carbonyl)-3,3-dimethylpiperazin-2-one], for which the IC50 in data set [1] amounted to 0.0014 µM; in data set [2], 0.0023 µM; in data set [3], 0.32 µM; in data set [4] it was 0.44 µM. Also, in data set [5], the clearance is 0.042 L/h/kg. Further, the Vd in data set [5] is 3.2 L/kg. Besides, in data set [5], the bioavailability stood at 66%. Moreover, the half-life in data set [5] is 56.9 h. For the same compound, the “% inhibition of an established carrageenan induced rat paw edema” value is reported as 26% in data set [6] (dose 0.6 mg/kg); 40* % in data set [6] (dose 2 mg/kg); 46*** % in data set [6] (dose 3 mg/kg); 48* % in data set [6] (dose 6 mg/kg); 50*** % in data set [6] (dose 10 mg/kg); 57*** % in data set [6] (dose 30 mg/kg). The “% inhibition of tryptase-induced nociception” value is recorded as 26% in data set [7] (dose 1 mg/kg), 36% in data set [7] (dose 3 mg/kg) and 40** % in data set [7] (dose 10 mg/kg). Also, the results for the “% improvement in Disease activity scores” value in data set [8] (dose 15 mg/kg each day for 5 days starting 1 day before TNBS) and in data set [8] (dose 50 mg/kg each day for 5 days starting 1 day before TNBS) were 21** % and 36*** %, respectively.
With `CC(C)(C)c1cc(-c2ccc(F)cc2)nn2cc(C(=O)N3CCN(C(=O)c4ccn[nH]4)CC3(C)C)nc12` [Compound I-201], the IC50 in data set [1] was found to be 0.0007 µM; in data set [2] it was 0.0009 µM; in data set [3], 0.37 µM; in data set [4], 0.56 µM. Besides, the clearance in data set [5] came to 0.654 L/h/kg. Moreover, in data set [5], the Vd came to 3.3 L/kg. The bioavailability in data set [5] stood at 55%. The half-life in data set [5] was 4.3 h. Besides, the entries for the “% inhibition of carrageenan induced paw edema” value in data set [6] (dose 5 mg/kg) and in data set [6] (dose 20 mg/kg) were 55** % and 60*** %, respectively. In addition, the “% inhibition of tryptase-induced nociception” value in data set [7] (dose 5 mg/kg) is listed as 52** %; in data set [7] (dose 15 mg/kg) it was 65*** %.
For `Cc1cc(-c2cc(C(C)C)c3nc(C(=O)N4CCNC(=O)C4(C)C)cn3n2)ccc1F` [Compound I-244, 4-[6-(4-fluoro-3-methyl-phenyl)-8-isopropyl-imidazo[1,2-b]pyridazine-2-carbonyl]-3,3-dimethyl-piperazin-2-one], the 50% inhibitory concentration (IC50) turned out to be 0.0075 µM in data set [1], 0.0102 µM in data set [2], 3.75 µM in data set [3] and 3.65 µM in data set [4]. Moreover, the clearance in data set [5] was 0.288 L/h/kg. For the same compound, the Vd in data set [5] amounted to 1.6 L/kg. For the same compound, the bioavailability in data set [5] is 70%. For the same compound, the half-life in data set [5] was 5.1 h. Further, the “% inhibition of carrageenan induced paw edema” value in data set [6] (dose 2 mg/kg) is listed as 42** %; in data set [6] (dose 6 mg/kg), 51** %; in data set [6] (dose 20 mg/kg), 67*** %. Further, the “% inhibition of an established tryptase-induced nociception” value is listed as 21* % in data set [7] (dose 2 mg/kg), 43* % in data set [7] (dose 6 mg/kg) and 48* % in data set [7] (dose 20 mg/kg).
Turning to `Cc1nnc(C(=O)N2CCN(C(=O)c3cn4nc(C5CCC(F)(F)CC5)cc(C(C)(C)C)c4n3)C(C)(C)C2)[nH]1` [Compound I-448, [8-tert-butyl-6-(4,4-difluorocyclohexyl)imidazo[1,2-b]pyridazin-2-yl]-[2,2-dimethyl-4-(5-methyl-4H-1,2,4-triazole-3-carbonyl)piperazin-1-yl]methanone], the IC50 in data set [1] came out at 0.0069 µM. The IC50 in data set [2] is 0.0114 µM. In data set [3], the IC50 was found to be 17.5 µM. In addition, the IC50 in data set [4] came to 14.5 µM. In data set [5], the clearance stood at 0.386 L/h/kg, the Vd was 1.84 L/kg, the bioavailability worked out at 87% and the half-life was 5.14 h. The “% inhibition of carrageenan induced paw edema” value in data set [6] (dose 20 mg/kg) is 15%.
